Source: PMC2965873, “Phase I and pharmacological study of the broad-spectrum tyrosine kinase inhibitor JNJ-26483327 in patients with advanced solid tumours” (British Journal of Cancer, 2010)
pIC50: −log10 of the molar value.

Key:
[1] = biological target: EGFR kinase; set-up: method as in Johnson & Johnson, data on file; conditions: in vitro; ref Johnson & Johnson, data on file; cited from earlier work
[2] = tested on: Lyn; set-up: method as in Johnson & Johnson, data on file; conditions: Src family; ref Johnson & Johnson, data on file; read-out: IC50 range; cited from earlier work
[3] = tested on: patients with advanced solid tumours; assay: phase I safety, DLT and MTD; type: in vivo
Experimental: JNJ-26483327 was supplied by Johnson & Johnson Pharmaceutical Research and Development, Beerse, Belgium as 10 or […] oral solution for doses ⩽1200 mg, or capsules of 50, 100 or 300 mg for doses ⩾1500 mg. Medication was taken in combination with food BID with 12 h intervals. A cycle was defined as 28 days of treatment.
The study followed an accelerated-escalation design. Initial cohorts consisted of one patient with dose doublings between cohorts in the absence of grade ⩾2 toxicity according to the National Cancer Institute Common Toxicity Criteria version 3.0 during the first cycle (http://ctep.cancer.gov/protocolDevelopment/electronic_applications/docs/ctcaev3.pdf). Once grade ⩾2 considered drug-related toxicity occurred during the first cycle, two additional patients were enrolled at that dose level with subsequent cohorts in accordance with a conventional dose-escalation (3+3) model. DLT was defined as any grade 3 or 4 non-haematological toxicity, except for nausea, vomiting or diarrhoea responsive to treatment; grade 3 skin rash/acne responsive to treatment, alopecia and isolated grade 3 GGT elevations; need for loperamide for >7 days to treat or prevent grade ⩾2 diarrhoea; need for continuous administration of 5HT-3 antagonists for >7 days to treat or prevent grade ⩾2 nausea or vomiting; a relative decrease of LVEF on MUGA scan of >20% compared with baseline; any grade 4 haematological toxicity or treatment interruptions of >14 days for grade ⩾2 toxicity in cycle 1.
If during the conventional escalation stage no DLT occurred, the dose for the next cohort was incremented with 20–100%. If DLT was observed during cycle 1 in one of three patients, an additional three patients were enrolled at that dose level. If ⩾2 out of 6 patients experienced DLT, the MTD was exceeded and three more patients were enrolled at the next lower dose level, unless already six patients had been accrued at that dose. The MTD was defined as the highest dose at which less than one-third of the patients experienced DLT.
(§1) Prior to therapy, a complete medical history was taken and a physical examination was performed. A complete blood cell (CBC) count, WBC count and differential and serum biochemistry including lipid profile and coagulation tests were performed, as were urinalysis, a 12-lead electrocardiogram (ECG) and MUGA scanning. Weekly evaluations during the first cycle, every other week during the second cycle and monthly thereafter included history, physical examination, adverse event assessment, CBC, WBC+differential, serum chemistry, ECG and urinalysis. An ECG was performed predose and 1, 2, 4, 8 and 24 h postdose on days 1 and 28. Follow-up of LVEF by MUGA scanning was performed at the end of the first and second cycle. Tumour measurements were performed at baseline and during every other cycle. Response was assessed according to RECIST ([Therasse et al, 2000]).

[4] = tested on: Fyn; set-up: method as in Johnson & Johnson, data on file; conditions: Src family; ref Johnson & Johnson, data on file; read-out: IC50 range; cited from earlier work
[5] = tested on: Her4; set-up: method as in Johnson & Johnson, data on file; conditions: ref Johnson & Johnson, data on file; read-out: IC50 range; cited from earlier work
[6] = set-up: method as in Johnson & Johnson, data on file; conditions: preclinical studies; ref Johnson & Johnson, data on file; cited from earlier work
[7] = tested on: Flt3; set-up: method as in Johnson & Johnson, data on file; conditions: ref Johnson & Johnson, data on file; cited from earlier work
[8] = tested on: c-Src; set-up: method as in Johnson & Johnson, data on file; conditions: ref Johnson & Johnson, data on file; cited from earlier work
[9] = tested on: healthy male volunteers; set-up: method as in preceding study in healthy male volunteers; conditions: single doses up to and including 200 mg; ref preceding study in healthy male volunteers; cited from earlier work
[10] = phase I plasma pharmacokinetics; type: in vivo, human
Experimental: For pharmacokinetic analysis, blood samples (3 ml) were collected before dosing and 0.5, 1, 2, 3, 4, 6, 8 and 24 h after drug administration on days 1 and 28 and predose, 0.5, 1, 2, 4 and 6 h postdose on day 15 of the first cycle and day 28 of the second cycle. Furthermore, trough PK samples were taken before drug administration on days 8 and 22. Blood samples were collected and protected from light in EDTA-Vacutainer® tubes and plasma was separated by centrifugation and stored at −20°C within 2 h of collection. Plasma concentrations of JNJ-26483327 were determined by validated, selective and sensitive liquid chromatography–mass spectrometry bioanalytical method.
Graphical analysis was performed using dose-normalised Cmax as well as AUC of days 1 and 28 for exploration of dose proportionality across doses.
The pharmacokinetic analysis and descriptive statistics were performed using PKAA 2.00 (developed for J&JPRD). PKAA 2.00 uses WinNonLin 5.2.1. Elimination rate constants (λz) were calculated as the negative of the slope of the terminal log-linear segment of the plasma concentration–time curves. The range of data used for each subject and dose were determined by visual inspection of a semi-logarithmic plot of concentration vs time. At least three data points were used to estimate λz. All PK calculations and figures used validated software.

[11] = tested on: xenograft mouse models; set-up: method as in Johnson & Johnson, data on file; conditions: preclinical studies; ref Johnson & Johnson, data on file; cited from earlier work
[12] = set-up: method as in Johnson & Johnson, data on file; conditions: ref Johnson & Johnson, data on file; cited from earlier work
[13] = tested on: mutationally activated EGFR kinases; set-up: method as in Johnson & Johnson, data on file; conditions: in vitro, several mutants; ref Johnson & Johnson, data on file; cited from earlier work
[14] = biological target: RET-receptor kinase; set-up: method as in Johnson & Johnson, data on file; conditions: in vitro; ref Johnson & Johnson, data on file; cited from earlier work
[15] = tested on: Her2; set-up: method as in Johnson & Johnson, data on file; conditions: ref Johnson & Johnson, data on file; cited from earlier work
[16] = tested on: Yes; set-up: method as in Johnson & Johnson, data on file; conditions: Src family; ref Johnson & Johnson, data on file; read-out: IC50 range; cited from earlier work
[17] = tested on: advanced solid tumours; assay: anti-tumour activity (RECIST); type: in vivo, human; conditions: 19 patients
Experimental: as §1

[18] = 800 mg BID, day 1, n=3, mean±s.d.
[19] = 800 mg BID, day 28 (steady state), n=2, mean
[20] = 1200 mg BID, day 1, n=3, mean±s.d.
[21] = 1200 mg BID, day 28 (steady state), n=2, mean
[22] = 1500 mg BID, day 1, n=6, mean±s.d.
[23] = 1500 mg BID, day 28 (steady state), n=6, mean±s.d.
[24] = 2100 mg BID, day 1, n=3, mean±s.d.
[25] = 2100 mg BID, day 28 (steady state), n=2, mean

COc1cc2ncnc3c2cc1OCCCCCN(C)Cc1ccc(Br)cc1N3 [JNJ-26483327]
pIC50 [1]: > 8.00 | pIC50 [2]: 7.00 to 7.96 | Anaemia: patients, Total % ([3]; in vivo): 15.8% | Anaemia: patients, Total n ([3]; in vivo): 3 | Anorexia: patients, Total % ([3]; in vivo): 42.1% | Constipation: patients, Total % ([3]; in vivo): 10.5% | Constipation: patients, Total n ([3]; in vivo): 2 | Diarrhoea: patients, Total n ([3]; in vivo): 12 | Dry skin: patients, Total % ([3]; in vivo): 10.5% | Dry skin: patients, Total n ([3]; in vivo): 2 | Dyspepsia: patients, Total % ([3]; in vivo): 10.5% | Dyspepsia: patients, Total n ([3]; in vivo): 2 | Dysphonia: patients, Total % ([3]; in vivo): 15.8% | Dysphonia: patients, Total n ([3]; in vivo): 3 | Fatigue: patients, Total % ([3]; in vivo): 47.4% | Fatigue: patients, Total n ([3]; in vivo): 9 | Nausea: patients, Total % ([3]; in vivo): 68.4% | Nausea: patients, Total n ([3]; in vivo): 13 | Pain: patients, Total % ([3]; in vivo): 10.5% | Pain: patients, Total n ([3]; in vivo): 2 | Rash: patients, Total % ([3]; in vivo): 57.9% | Rash: patients, Total n ([3]; in vivo): 11 | Skin discolouration: patients, Total % ([3]; in vivo): 5.3% | Skin discolouration: patients, Total n ([3]; in vivo): 1 | Skin exfoliation (palms): patients, Total % ([3]; in vivo): 5.3% | Skin exfoliation (palms): patients, Total n ([3]; in vivo): 1 | Vomiting: patients, Total % ([3]; in vivo): 52.6% | Vomiting: patients, Total n ([3]; in vivo): 10 | Weight decreased: patients, Total % ([3]; in vivo): 10.5% | Weight decreased: patients, Total n ([3]; in vivo): 2 | gastrointestinal side effects, incidence ([3]; in vivo): 95% | hypertension ([3]; in vivo): no hypertension was noted | patients with grade 2 anaemia ([3]; in vivo): three | skin toxicity, overall incidence ([3]; in vivo): 68% | subjects with a significant decrease in LVEF ([3]; in vivo): None | recommended dose for further studies (phase 2 dose) ([3]; in vivo, po): 1500 mg BID | maximum tolerated dose (MTD) ([3]; oral, continuous, 28-day cycles): 1500 mg BID | pIC50 [4]: 7.00 to 7.96 | pIC50 [5]: 7.00 to 7.96 | tissue distribution profile [6]: passage of the blood–brain barrier | pIC50 [7]: 6.00 to 7.00 | pIC50 [8]: 6.00 to 7.00 | safety and tolerability [9]: safe and well tolerated | CL/F [10, 18]: 86.3 ± 33.5 L/h | Cmax [10, 18]: 2210 ± 593 ng/mL | Vdz/F [10, 18]: 1021 ± 401 L | t1/2 [10, 18]: 8.4 ± 1.8 h | tmax ([10]; 800 mg BID, day 1, n=3, median (min–max)): 2.03 (2.00–3.02) h | AUC (AUCtau) [10, 19]: 10 623 ng h ml^−1 | CL/F [10, 19]: 76.4 L/h | Cmax [10, 19]: 2390 ng/mL | tmax ([10]; 800 mg BID, day 28 (steady state), n=2, median (min–max)): 1.52 (1.00–2.03) h | CL/F [10, 20]: 47.4 ± 35.3 L/h | Cmax [10, 20]: 3707 ± 1927 ng/mL | Vdz/F [10, 20]: 342 ± 212 L | t1/2 [10, 20]: 5.2 ± 1.7 h | tmax ([10]; 1200 mg BID, day 1, n=3, median (min–max)): 3.00 (2.00–6.00) h | AUC (AUCtau) [10, 21]: 21 230 ng h ml^−1 | CL/F [10, 21]: 88.4 L/h | Cmax [10, 21]: 2750 ng/mL | tmax ([10]; 1200 mg BID, day 28 (steady state), n=2, median (min–max)): 1.00 (1.00–1.00) h | CL/F [10, 22]: 144 ± 104 L/h | Cmax [10, 22]: 2361 ± 1765 ng/mL | Vdz/F [10, 22]: 1038 ± 799 L | t1/2 [10, 22]: 4.8 ± 0.5 h | tmax ([10]; 1500 mg BID, day 1, n=6, median (min–max)): 4.00 (2.00–4.03) h | CL/F [10, 23]: 286 ± 540 L/h | Cmax [10, 23]: 3375 ± 2116 ng/mL | tmax ([10]; 1500 mg BID, day 28 (steady state), n=6, median (min–max)): 3.99 (3.00–12.00) h | CL/F [10, 24]: 3055 ± 5099 L/h | t1/2 [10, 24]: 6.7 ± 1.7 h | Cmax ([10]; 2100 mg BID, day 1, n=4, mean±s.d.): 2213 ± 2983 ng/mL | tmax ([10]; 2100 mg BID, day 1, n=4, median (min–max)): 3.54 (2.00–4.08) h | AUC (AUCtau) [10, 25]: 8467 ng·h/mL | CL/F [10, 25]: 3087 L/h | Cmax [10, 25]: 1236 ng/mL | tmax ([10]; 2100 mg BID, day 28 (steady state), n=2, median (min–max)): 5.00 (4.00–6.00) h | dose proportionality of pharmacokinetics ([10]; Cmax and AUC at steady state): dose proportional up to 1500 mg | terminal half-life ([10]; all dose levels): 5 to 8 h | peak concentration (average) ([10]; day 1, 1200 mg): ~4 μg ml^–1 | Cmax ([10]; day 1, 1500 and 2100 mg dose groups): ~2 μg ml^–1 | time to reach Cmax ([10]; first administration, capsule formulation (dose levels 1500 and 2100 mg)): up to 4 h | time to reach Cmax ([10]; first administration, liquid formulation (dose levels 800 and 1200 mg)): 2 to 3 h | time to reach Cmax ([10]; steady state (days 15 and 28), capsule formulation): 2 to 5 h | time to reach Cmax ([10]; steady state (days 15 and 28), liquid formulation): 1 to 2 h | anti-cancer activity [11]: anti-cancer activity was observed | oral bioavailability [12]: ~80% | pIC50 [13]: > 8.00 | pIC50 [14]: > 8.00 | pIC50 [15]: 6.00 to 7.00 | pIC50 [16]: 7.00 to 7.96 | patients with stable disease lasting more than two cycles ([17]; 100–2100 mg BID): six | patients with stable disease ([17]; more than two cycles): 32%
